Here are results for three compounds from patent US20180185309A1, “METHODS AND COMPOSITIONS FOR TREATING NEPHROPATHY” (The Regents of the University of California, priority 2015, published 2018).

For data set [1] the following is noted: chemical chaperones that inhibit ER stress; cited from earlier work.
Another data set deals with T1, sEH (Homo sapiens, UniProt P34913).
T1 sequence (P34913 1-555): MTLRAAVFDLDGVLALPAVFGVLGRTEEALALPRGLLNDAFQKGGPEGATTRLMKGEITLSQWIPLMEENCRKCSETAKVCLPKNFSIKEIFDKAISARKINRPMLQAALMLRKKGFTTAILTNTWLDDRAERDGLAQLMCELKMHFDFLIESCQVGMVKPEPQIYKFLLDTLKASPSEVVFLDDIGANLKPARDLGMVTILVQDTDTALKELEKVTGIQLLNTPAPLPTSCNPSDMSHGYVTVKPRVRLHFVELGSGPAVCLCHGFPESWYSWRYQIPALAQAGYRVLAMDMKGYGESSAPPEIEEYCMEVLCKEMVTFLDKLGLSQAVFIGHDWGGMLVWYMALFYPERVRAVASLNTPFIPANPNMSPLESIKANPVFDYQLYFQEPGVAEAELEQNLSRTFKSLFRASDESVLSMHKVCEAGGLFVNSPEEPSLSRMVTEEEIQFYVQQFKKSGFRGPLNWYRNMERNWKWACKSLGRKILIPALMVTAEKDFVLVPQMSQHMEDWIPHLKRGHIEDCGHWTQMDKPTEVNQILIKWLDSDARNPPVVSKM
As to the kind of experiment: sEH inhibition, assay not specified. The data set is classed as biochemical. The text has this: “Soluble epoxide hydrolase” (“sEH”) is an epoxide hydrolase which in endothelial and smooth muscle cells converts EETs to dihydroxy derivatives called dihydroxyeicosatrienoic acids (“DHETs”). The cloning and sequence of the murine sEH is set forth in Grant et al., J. Biol. Chem. 268(23):17628-17633 (1993). The cloning, sequence, and accession numbers of the human sEH sequence are set forth in Beetham et al., Arch. Biochem. Biophys. 305(1):197-201 (1993). The amino acid sequence of human sEH is SEQ ID NO.:1, while the nucleic acid sequence encoding the human sEH is SEQ ID NO.:2. (The sequence set forth as SEQ ID NO.:2 is the coding portion of the sequence set forth in the Beetham et al. 1993 paper and in the NCBI Entrez Nucleotide Browser at accession number L05779, which include the 5′ untranslated region and the 3′ untranslated region.) The evolution and nomenclature of the gene is discussed in Beetham et al., DNA Cell Biol. 14(1):61-71 (1995). Soluble epoxide hydrolase represents a single highly conserved gene product with over 90% homology between rodent and human (Arand et al., FEBS Lett., 338:251-256 (1994)). Unless otherwise specified, as used herein, the terms “soluble epoxide hydrolase” and “sEH” refer to human sEH. […]

Data set [2] in a line: Metabolic stability, method not specified. The class given is in vitro ADME.

Regarding `O=C(O)CCCc1ccccc1` [4-PBA, 4-phenyl butyric acid], the DN disease progression entry in data set [1] is given as “slow DN disease progression”.

On to `CCCCCCCCCCCCNC(=O)NC12CC3CC(CC(C3)C1)C2` [ADU, N-Adamantyl-N′-dodecyl urea], for which, at sEH, the “activity on sEH” value is listed as “particularly high activity”. In addition, the metabolic stability result in data set [2] is “metabolically stable”. In the case of `C[C@H](CCC(=O)NCCS(=O)(=O)O)[C@H]1CC[C@H]2[C@@H]3[C@@H](O)C[C@@H]4C[C@H](O)CC[C@]4(C)[C@H]3CC[C@]12C` [TUDCA, tauroursodeoxycholic acid], in data set [1], the DN disease progression entry is reported as “slow DN disease progression”.
